Assay [1] has as its target T1, CMP-Sia fusion protein bearing green fluorescent protein (GFP) (Mus musculus, UniProt Q61420).
T1 construct: made in house; host or cells: Saccharomyces cerevisiae FGY217
Description: CMP-Sia-GFP fusion solubilization (fluorescence). The following applies: 1 hr at 4° C., total fluorescence. As for the experimental part:
The favorable MelB extraction performance of GDN led to the examination of this amphiphile for extraction of other IMPs. […] DDM and GDN were used to extract a CMP-Sia fusion protein bearing green fluorescent protein (GFP) at the C-terminus, after expression in Saccharomyces cerevisiae; the amount of solubilized protein was estimated by total fluorescence. GDN (2 wt %), DDM (1 wt %) and OG (1 wt %) gave ˜70%, ˜80% and ˜50% extraction yields, respectively.
The procedure was performed according to the protocol reported by Chae and coworkers (Nat. Methods 2010, 7, 1003-1008).
CMP-Sia was expressed as a fusion protein with a C-terminal GFP in FGY217 Saccharomyces cerevisiae cells. Cell lysis was conducted by using a cell disrupter (Constant Systems) and the protein samples were subjected to centrifugation at 15,000 g for 10 mins to remove unbroken cells and debris. Subsequently, the membranes were harvested by ultracentrifugation at 150,000 g for 45 min. The membranes were resuspended in 50 mM Tris-HCl (pH 7.6), 1 mM EDTA, 0.6 M sorbitol and the protein concentration was estimated using a BCA kit (Pierce). The membranes were incubated with OG or DDM at 1.0%, or GDN at 2.0% for 1 hr at 4° C. A fluorescence value was measured for each sample before and after ultracentrifugation at 150,000 g for 1 h. The solubilization efficiency was calculated via the fluorescence measurements of the soluble supernatant/the total sample.

The target of a further assay is T2, Bacteriorhodopsin (bR) (Halobacterium salinarum, UniProt P02945).
T2 construct: Frozen aliquots of purple membranes containing bR at 184 μM were thawed at room temperature; endogenous in cells; host or cells: purple membranes (native)
T2 sequence (P02945 14-261 limits assumed): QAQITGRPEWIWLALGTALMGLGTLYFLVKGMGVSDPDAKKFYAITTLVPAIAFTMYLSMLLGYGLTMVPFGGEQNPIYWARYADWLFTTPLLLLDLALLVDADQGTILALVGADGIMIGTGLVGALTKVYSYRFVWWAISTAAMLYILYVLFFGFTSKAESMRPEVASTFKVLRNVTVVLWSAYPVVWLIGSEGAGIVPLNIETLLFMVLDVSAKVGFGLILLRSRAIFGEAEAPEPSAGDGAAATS
Kind of assay: Bacteriorhodopsin stability (absorbance at 554 nm). Particulars: 0.2 wt % OTG+1.6 wt % agent, RT; for Maintaining the native structure of bR compared with conventional detergents: absorbance at 554 nm over 20 days. The procedure: bR was extracted from the native purple membrane with 2.0 wt % octyl-β-D-thioglucoside (OTG) (see Bazzacco at al., Biomacromolecules 2009, 10, 3317-3326). Following ultracentrifugation to remove insoluble debris, the bR solution was diluted with amphiphile solutions to give 0.2 wt % OTG+1.6 wt % new agent or DDM. The absorbance of the solutions at 554 nm was measured periodically over 20 days. […] When the assay was conducted at a lower amphiphile concentration, 0.2 wt % OTG+0.8 wt % new agent or DDM, similar results were obtained (FIG. 3).
The procedure for the bR stability assay followed the protocol reported by Bazzacco and coworkers (Biomacromolecules 2009, 10, 3317-3326).
The procedure for the bR stability assay generally followed the reported protocol (Bazzacco et al., Biomacromolecules 2009, 10, 3317-3326). Frozen aliquots of purple membranes containing bR at 184 μM were thawed at room temperature and solubilized by using an octylthioglucoside (OTG) solution for 24 hr at 4° C. in a dark room. For this purpose, OTG (CMC=0.28 wt %) was used at 2.0 wt % in 10 mM sodium phosphate (pH 6.9). Membrane debris was then removed from the solubilized material via ultracentrifugation at 200,000 g at 4° C. for 20 min. The supernatant, including bR protein, was transferred into individual DDM, GLC, or GDN solutions, giving final concentration of OTG: new amphiphiles=0.2 wt %: 0.8 wt % (1:4) or 0.2 wt %:1.6 wt % (1:8). The stability of bR in each solution was monitored by measuring absorbance at 554 nm over 20 days.

Each structure is given as a SMILES string.

Regarding `CCCCCCCCCCCCO[C@@H]1O[C@H](CO)[C@@H](O[C@H]2O[C@H](CO)[C@@H](O)[C@H](O)[C@H]2O)[C@H](O)[C@H]1O` [DDM, dodecyl-β-D-maltoside, reference compound], the CMP-Sia-GFP extraction yield in assay [1] (1 wt %) is on record as around 80%. Turning to `C[C@@H]1CC[C@@]2(OC1)O[C@H]1C[C@H]3[C@@H]4CC=C5C[C@@H](OCCC(CO[C@@H]6OC(CO)[C@@H](O[C@H]7OC(CO)[C@@H](O)C(O)C7O)C(O)C6O)CO[C@@H]6OC(CO)[C@@H](O[C@H]7OC(CO)[C@@H](O)C(O)C7O)C(O)C6O)CC[C@]5(C)[C@H]4CC[C@]3(C)[C@@H]1[C@@H]2C` (some centres unmarked) [GDN, glyco-diosgenin], the “Loss in bR protein integrity after 20 days” value on Bacteriorhodopsin (bR) (absorbance at 554 nm) is reported as “negligible loss in protein integrity”. The “Maintaining the native structure of bR compared with conventional detergents” value at Bacteriorhodopsin (bR) was “more effective than conventional detergents OTG and DDM”. Besides, the CMP-Sia-GFP extraction yield in assay [1] (2 wt %) is recorded as around 70%. Turning to `CO[C@@H]1CC[C@@]2(C)[C@H](CC[C@@H]3[C@@H]2CC[C@]2(C)[C@@H]([C@H](C)CCCOCC(C)(CO[C@@H]4OC(CO)C(O[C@@H]5OC(CO)[C@@H](O)[C@H](O)C5O)[C@@H](O)C4O)CO[C@@H]4OC(CO)[C@@H](O[C@H]5OC(CO)[C@@H](O)[C@H](O)C5O)[C@H](O)C4O)CC[C@@H]32)C1` (some centres unmarked) [GLC-2], the “Maintaining the native structure of bR compared with conventional detergents” value on Bacteriorhodopsin (bR) is “more effective than conventional detergents OTG and DDM”.

For the origin of these results see patent US9556217B2, “Amphiphilic compounds” (WISCONSIN ALUMNI RESEARCH FOUNDATION, priority 2012, dated 2017).
